Reference: ChEMBL document CHEMBL4004859, “Synthesis, antimalarial activity, heme binding and docking studies of N-substituted 4-aminoquinoline-pyrimidine molecular hybrids” (Eur J Med Chem, 2017)
Calls of active or inactive are those of the source. The calls are words filed in the database; no cut-off is given here.

Experiments:
Vero = assay: Cytotoxicity against African green monkey Vero cells assessed as reduction in cell viability up to 10 uM after 48 hrs by neutral red assay; assay type: cell-based; conditions: chlorocebus sabaeus
Plasmodium falciparum [1] = assay: Antimalarial activity against chloroquine-sensitive Plasmodium falciparum D6 infected in red blood cells after 72 hrs by Malstat reagent based LDH assay; assay type: functional, cell-based; conditions: D6, 72 h
Plasmodium falciparum [2] = assay: Antimalarial activity against chloroquine-resistant Plasmodium falciparum W2 infected in red blood cells after 72 hrs by Malstat reagent based LDH assay; assay type: functional, cell-based; conditions: W2, 72 h
[3] = Selectivity index, ratio of IC50 for African green monkey Vero cells to IC50 for chloroquine-resistant Plasmodium falciparum W2 infected in red blood cells; assay type: toxicity, cell-based; conditions: read-out: Ratio IC50
[4] = Resistance index, ratio of IC50 for Plasmodium falciparum W2 infected in red blood cells to IC50 for Plasmodium falciparum D6 infected in red blood cells; assay type: functional
[5] = Selectivity index, ratio of IC50 for African green monkey Vero cells to IC50 for chloroquine-sensitive Plasmodium falciparum D6 infected in red blood cells; assay type: toxicity, cell-based; conditions: read-out: Ratio IC50
Plasmodium falciparum [6] = assay: Antimalarial activity against chloroquine-resistant Plasmodium falciparum W2 infected in red blood cells up to 10 uM after 72 hrs by Malstat reagent based LDH assay; assay type: functional, cell-based
Heme [7] = assay: Binding affinity to monomeric heme (unknown origin) in DMSO/water solution up to 40 uM at pH 5.6 by titration-based UV-vis spectrophotometric analysis
mu-oxodimeric heme [8] = assay: Binding affinity to mu-oxodimeric heme (unknown origin) in aqueous NaOH solution assessed as 1:1 stoichiometry for heme-compound complex at pH 5.8 by Job's plot method
Heme [9] = assay: Binding affinity to monomeric heme (unknown origin) assessed as mole fraction of compound required to show 1:1 stoichiometry for heme-compound complex at pH 5.6 to 7.4 by Job's plot method
mu-oxodimeric heme [10] = assay: Binding affinity to mu-oxodimeric heme (unknown origin) in aqueous NaOH solution up to 15 uM at pH 5.8 by titration-based UV-vis spectrophotometric analysis

Compound	Activity (Vero)	IC50 (Plasmodium falciparum [1])	IC50 (Plasmodium falciparum [2])	selectivity ratio [3]	Ratio IC50 [4]	selectivity ratio [5]	Activity (Plasmodium falciparum [6])	Activity (Heme [7])	Activity (mu-oxodimeric heme [8])	Activity (mole fraction) (Heme [9])	Activity (mu-oxodimeric heme [10])
CCN1CCN(c2nc(C)cc(N(CCCNc3ccnc4cc(Cl)ccc34)Cc3ccco3)n2)CC1	Non-Toxic	44 nM	43 nM	> 233	0.977	> 222					
Cc1cc(N(CCNc2ccnc3cc(Cl)ccc23)Cc2ccco2)nc(N2CCOCC2)n1	Non-Toxic	55 nM	122 nM	> 82	2.21	> 182					
Cc1cc(N(CCCNc2ccnc3cc(Cl)ccc23)Cc2ccco2)nc(N2CCOCC2)n1	Non-Toxic	46 nM	257 nM	> 38.9	5.58	> 217					
Cc1cc(N(CCCNc2ccnc3cc(Cl)ccc23)Cc2ccco2)nc(Cl)n1	Non-Toxic	108 nM	454 nM	> 22	4.2	> 92.6					
CCN1CCN(c2cc(C)nc(N(CCNc3ccnc4cc(Cl)ccc34)Cc3ccco3)n2)CC1	Non-Toxic	42 nM	47 nM	> 213	1.11	> 238					
Cc1cc(N2CCCC2)nc(N(CCCNc2ccnc3cc(Cl)ccc23)Cc2ccco2)n1	Non-Toxic	51 nM	162 nM	> 61.7	3.17	> 196					
CCc1nc(N)nc(N)c1-c1ccc(Cl)cc1 [PYRIMETHAMINE]	Non-Toxic					> 1110	inactive				
Cc1cc(N2CCCCC2)nc(N(CCNc2ccnc3cc(Cl)ccc23)Cc2ccco2)n1	Non-Toxic	44 nM	204 nM	> 49	4.63	> 222					
CCN1CCN(c2cc(C)nc(N(CCCNc3ccnc4cc(Cl)ccc34)Cc3ccco3)n2)CC1	Non-Toxic	40 nM	39 nM	> 256	0.975	> 250					
Cc1cc(N2CCOCC2)nc(N(CCCNc2ccnc3cc(Cl)ccc23)Cc2ccco2)n1	Non-Toxic	53 nM	167 nM	> 59.9	3.15	> 189					
Cc1cc(Cl)nc(N(CCCNc2ccnc3cc(Cl)ccc23)Cc2ccco2)n1	Non-Toxic	337 nM	506 nM	> 19.8	1.5	> 29.7					
Cc1cc(N(CCCNc2ccnc3cc(Cl)ccc23)Cc2ccco2)nc(N2CCN(C)CC2)n1	Non-Toxic	45 nM	47 nM	> 213	1.04	> 206					
Cc1cc(N2CCN(C)CC2)nc(N(CCNc2ccnc3cc(Cl)ccc23)Cc2ccco2)n1	Non-Toxic	42 nM	42 nM	> 238	1	> 238					
Cc1cc(N2CCCCC2)nc(N(CCCNc2ccnc3cc(Cl)ccc23)Cc2ccco2)n1	Non-Toxic	59 nM	197 nM	> 50.8	3.33	> 169					
C[C@@H]1CC[C@H]2[C@@H](C)C(=O)O[C@@H]3O[C@@]4(C)CC[C@@H]1[C@]32OO4 [ARTEMISININ]	Non-Toxic	45 nM	23 nM	435	0.511	> 222					
CCN1CCN(c2nc(C)cc(N(CCNc3ccnc4cc(Cl)ccc34)Cc3ccco3)n2)CC1	Non-Toxic	38 nM	40 nM	> 250	1.05	> 263		Active	Active	0.5	Active
Cc1cc(N(CCNc2ccnc3cc(Cl)ccc23)Cc2ccco2)nc(N2CCN(C)CC2)n1	Non-Toxic	41 nM	41 nM	> 244	1	> 244					
Cc1cc(N(CCCNc2ccnc3cc(Cl)ccc23)Cc2ccco2)nc(N2CCCCC2)n1	Non-Toxic	43 nM	72 nM	> 139	1.67	> 233					
Cc1cc(N2CCN(C)CC2)nc(N(CCCNc2ccnc3cc(Cl)ccc23)Cc2ccco2)n1	Non-Toxic	49 nM	48 nM	> 208	0.979	> 204					
Cc1cc(N2CCOCC2)nc(N(CCNc2ccnc3cc(Cl)ccc23)Cc2ccco2)n1	Non-Toxic	43 nM	63 nM	> 159	1.46	> 233					
Cc1cc(Cl)nc(N(CCNc2ccnc3cc(Cl)ccc23)Cc2ccco2)n1	Non-Toxic	80 nM	62 nM	> 161	0.775	> 125					
Cc1cc(N2CCCC2)nc(N(CCNc2ccnc3cc(Cl)ccc23)Cc2ccco2)n1	Non-Toxic	60 nM	194 nM	> 51.5	3.23	> 167					
Cc1cc(N(CCCNc2ccnc3cc(Cl)ccc23)Cc2ccco2)nc(N2CCCC2)n1	Non-Toxic	44 nM	76 nM	> 132	1.72	> 222					
CCN(CC)CCCC(C)Nc1ccnc2cc(Cl)ccc12 (stereo not drawn) [CHLOROQUINE]	Non-Toxic										
Cc1cc(N(CCNc2ccnc3cc(Cl)ccc23)Cc2ccco2)nc(N2CCCCC2)n1	Non-Toxic	61 nM	199 nM	> 50.2	3.26	> 164					
Cc1cc(N(CCNc2ccnc3cc(Cl)ccc23)Cc2ccco2)nc(N2CCCC2)n1	Non-Toxic	50 nM	163 nM	> 61.3	3.26	> 200					
Cc1cc(N(CCNc2ccnc3cc(Cl)ccc23)Cc2ccco2)nc(Cl)n1	Non-Toxic	64 nM	75 nM	> 133	1.17	> 156					
